Reference: PubChem BioAssay AID651854 (Broad Institute, 2012)
The source made the active and inactive calls. No rule for the calls is given here.

Columns and labels:
[1] = inducers of V. cholerae light production, dose response, BH1578, luxS and cqsA deficient, dry powder (AID 651854); conditions: V. cholerae BH1578 lux reporter, luminescence, 6 h
[2] = system: V. cholerae BH1578 lux reporter, luminescence, 6 h; test: as above

| Compound | light induction ([1]; at 35 µM (top of the series)) | also measured |
| --- | --- | --- |
| COc1ccc(CNC(=O)N(C)C[C@@H]2OCc3ccccc3-c3c(n(C)c4ccccc34)C(=O)N([C@@H](C)CO)C[C@H]2C)cc1 | 1.27% (inactive) | – |
| C[C@H]1CN([C@@H](C)CO)C(=O)c2cc(NC(=O)CCC(F)(F)F)ccc2O[C@H]1CN(C)Cc1ccc(Cl)c(Cl)c1 | 1.05% (inactive) | – |
| CCOC(=O)c1cc2c(c(-c3cccc(Br)c3)n1)[C@@H](CCO)N(C(=O)NC(C)C)C2 | 0.322% (inactive) | – |
| CN1C(=O)c2cc(NS(C)(=O)=O)ccc2OC[C@@H]2O[C@H](CC(=O)NCc3ccc(-c4ccccc4)cc3)CC[C@@H]21 | 0.313% (inactive) | – |
| Cc1ccc2cc3c(NC(=O)c4ccco4)nn(CC(C)C)c3nc2c1 | 2.93% (inactive) | – |
| Cc1ccc2cc3c(NC(=O)c4ccccn4)nn(C)c3nc2c1 | -0.663% (inactive) | – |
| Cc1noc(C)c1NC(=O)N(C)C[C@@H]1Oc2ccc(NC(=O)CCC(F)(F)F)cc2C(=O)N([C@@H](C)CO)C[C@@H]1C | 0.322% (inactive) | – |
| C[C@H](CO)N1C[C@H](C)[C@@H](CN(C)S(=O)(=O)c2ccccc2)Oc2c(NC(=O)Nc3ccc4c(c3)OCO4)cccc2C1=O | – | AC40 [2]: > 16 µM (inactive) |
| C[C@H](CO)N1C[C@H](C)[C@H](CN(C)C(=O)Cc2ccncc2)Oc2cc(C3=CCCCC3)ccc2S1(=O)=O | 0.158% (inactive) | – |
| CCn1nnc(NCc2ccc(N3CCCC3)cc2)n1 | 10.7% (inactive) | – |
| CCCN(C)C[C@@H]1Oc2cc(C#Cc3cccc(OC)c3)ccc2S(=O)(=O)N([C@@H](C)CO)C[C@@H]1C | -0.148% (inactive) | – |
| C[C@H](CO)N1C[C@H](C)[C@@H](CN(C)C(=O)NC2CCCCC2)OCc2ccccc2-c2c(n(C)c3ccccc23)C1=O | 0% (inactive) | – |
| Cn1c(C(=O)NC2CCCCC2)cc2c(=O)n(C)c3ccccc3c21 | – | AC40 [2]: > 35 µM (inactive) |
| Cn1nc(NC(=O)c2ccco2)c2c(F)cccc21 | -0.824% (inactive) | – |
| O=[N+]([O-])c1ccc(N2CCOCC2)c2c1no[n+]2[O-] | 0.322% (inactive) | – |
| Cc1cc(C)c2c(NC(=O)c3ccco3)nn(C)c2n1 | – | AC40 [2]: > 35 µM (inactive) |
| O=C(O)C[C@@H]1CC[C@H](NC(=O)c2ccncc2)[C@@H](CO)O1 | 0.322% (inactive) | – |
| CO[C@@H]1CN(C)C(=O)c2cc(NC(=O)C3CC3)ccc2OC[C@H](C)N(C(=O)NC(C)C)C[C@H]1C | 1.05% (inactive) | – |
| CCCn1nnnc1NCc1ccc(N2CCCC2)cc1 | – | AC40 [2]: < 0.135 µM |
| CO[C@@H]1CC[C@H]2CCOc3ccc(C#N)cc3C(=O)N(C)[C@H](C)C(=O)N(C)C[C@@H]1O2 | 0.313% (inactive) | – |
| C[C@H]1CCCCO[C@H](CN(C)C(=O)c2ccccc2)[C@@H](C)CN([C@@H](C)CO)C(=O)c2cc(NC(=O)c3ccccc3)ccc2O1 | -0.733% (inactive) | – |
| CO[C@H]1CN(C)C(=O)c2cccc(C#N)c2OCC[C@@H]2CC[C@@H](OC)[C@@H](CN(C)C(=O)[C@H]1C)O2 | 5.31% (inactive) | – |
| COCC(=O)N[C@@H]1C=C[C@H](CC(=O)N2CCCCC2)O[C@@H]1CO | 0.262% (inactive) | – |
| O=C(C[C@@H]1CC[C@@H]2[C@H](COC[C@H](O)CN2Cc2ccc(C(F)(F)F)cc2)O1)N1CCc2ccccc2C1 | 0.313% (inactive) | – |
| COc1ccc(-c2ccc([C@H]3[C@@H](C#N)N(C(=O)NC4CCCCC4)[C@H]3CO)cc2)cc1 | – | AC40 [2]: > 35 µM (inactive) |
| CCCC#Cc1cnc2c(c1)C(=O)N([C@H](C)CO)C[C@H](C)[C@H](CN(C)C(=O)CCN1CCCCC1)O2 | -0.148% (inactive) | – |

| Compound | light induction ([1]; at 35 µM (top of the series)) | also measured |
| --- | --- | --- |
| CCn1nc(NC(=O)c2ccco2)c2cc3ccccc3nc21 | – | AC40 [2]: 5.43 µM |
| C[C@@H]1CN([C@@H](C)CO)S(=O)(=O)c2ccc(-c3ccncc3)cc2O[C@@H]1CN(C)S(=O)(=O)c1ccccc1F | 0.546% (inactive) | – |
| C[C@H](CO)N1C[C@H](C)[C@@H](CN(C)S(=O)(=O)c2ccccc2F)Oc2cc(-c3ccncc3)ccc2S1(=O)=O | 0% (inactive) | – |
| Cc1cccc2cc3c(NC(=O)c4ccco4)nn(C)c3nc12 | – | AC40 [2]: < 0.135 µM |
| CC(C)c1cccc(NC(=O)C[C@H]2CC[C@H]3[C@@H](COc4ccc(NC(=O)c5ccc(C#N)cc5)cc4C(=O)N3C)O2)c1 | 0.322% (inactive) | – |
| Cc1noc(C)c1NC(=O)N(C)C[C@H]1Oc2ccc(NC(=O)CCC(F)(F)F)cc2C(=O)N([C@H](C)CO)C[C@H]1C | 0% (inactive) | – |
| COc1ccc(C#Cc2ccc3c(c2)O[C@H](CN(C)C(=O)CN2CCOCC2)[C@@H](C)CN([C@@H](C)CO)S3(=O)=O)cc1 | 0% (inactive) | – |
| CCC(=O)Nc1nn(C)c2nc3cc(C)ccc3cc12 | -0.824% (inactive) | – |
| CCn1nnnc1NCc1ccc(N2CCCC2)cc1 | – | AC40 [2]: < 0.135 µM |
| Cc1ccc2cc3c(NC(=O)C4CCCCC4)nn(C)c3nc2c1 | – | AC40 [2]: < 0.135 µM |
| CC(C)NC(=O)Nc1ccc2c(c1)C(=O)N([C@H](C)CO)C[C@H](C)[C@@H](CN(C)Cc1ccncc1)OCCCC[C@@H](C)O2 | – | light induction ([1]; at 30 µM (top of the series)): 3.45% (inactive) |
| O=[N+]([O-])c1ccc(N(CCO)CCO)c2c1no[n+]2[O-] | 9.14% (inactive) | – |
| COc1ccc(-c2ccc([C@@H]3[C@H](C#N)N(C(=O)NC4CCCCC4)[C@H]3CO)cc2)cc1 | -0.497% (inactive) | – |
| CC(C)COC(=O)CNc1n[nH]c(=S)[nH]c1=O | – | AC40 [2]: > 35 µM (inactive) |
| CC=Cc1ccc2n(c1=O)C[C@@H]1[C@@H](CO)[C@H](C(=O)NCC)N(Cc3ccccc3Cl)[C@H]21 (mixture of isomers) | 0.694% (inactive) | – |
| Cc1ccc2cc3c(NC(=O)c4ccccc4)nn(C)c3nc2c1 | 0.503% (inactive) | – |
| C[C@H]1CN([C@@H](C)CO)C(=O)Cc2cc(NS(C)(=O)=O)ccc2O[C@H]1CN(C)Cc1ccc(-c2ccccc2)cc1 | -0.148% (inactive) | – |
| Cc1ccccc1-c1ccc2c(c1)O[C@H](CN(C)Cc1ccc(C(=O)O)cc1)[C@@H](C)CN([C@H](C)CO)S2(=O)=O | -0.148% (inactive) | – |
| C[C@H](NC(=O)C[C@@H]1CC[C@H]2[C@H](COc3ccc(NS(=O)(=O)c4ccc(Cl)cc4)cc3C(=O)N2C)O1)c1ccccc1 | 0.158% (inactive) | – |
| COc1ccc(C#Cc2cnc3c(c2)C(=O)N([C@@H](C)CO)C[C@H](C)[C@H](CN(C)C(=O)CC2CC2)O3)cc1 | 0% (inactive) | – |
| CO[C@H]1CN(C)C(=O)c2cc(NS(=O)(=O)c3c(C)noc3C)ccc2OC[C@H](C)NC[C@@H]1C | 0% (inactive) | – |
| CO[C@@H]1CC[C@@H]2CCOc3ccc(C#N)cc3C(=O)N(C)C[C@H](C)C(=O)N(C)C[C@H]1O2 | 0.497% (inactive) | – |
| CCn1nc(NC(=O)c2ccco2)c2cc3ccc(C)cc3nc21 | – | AC40 [2]: > 35 µM (inactive) |
| O=C(NC1CCCCC1)C(=O)c1c[nH]c2ccccc12 | – | AC40 [2]: > 35 µM (inactive) |
| O=C(N[C@@H]1C=C[C@H](CC(=O)N2CCCCC2)O[C@H]1CO)c1ccc2c(c1)OCO2 | 0% (inactive) | – |
